{
  "source": "ChEMBL document CHEMBL3132769",
  "about": "“Fragment growing to retain or alter the selectivity of anchored kinase hinge-binding fragments” (Medchemcomm, 2014)",
  "key": {"[1]": {"biological_target": "T1, Inhibitor of nuclear factor kappa-B kinase subunit beta (Homo sapiens) (UniProt O14920)", "T1 sequence (whole entry)": "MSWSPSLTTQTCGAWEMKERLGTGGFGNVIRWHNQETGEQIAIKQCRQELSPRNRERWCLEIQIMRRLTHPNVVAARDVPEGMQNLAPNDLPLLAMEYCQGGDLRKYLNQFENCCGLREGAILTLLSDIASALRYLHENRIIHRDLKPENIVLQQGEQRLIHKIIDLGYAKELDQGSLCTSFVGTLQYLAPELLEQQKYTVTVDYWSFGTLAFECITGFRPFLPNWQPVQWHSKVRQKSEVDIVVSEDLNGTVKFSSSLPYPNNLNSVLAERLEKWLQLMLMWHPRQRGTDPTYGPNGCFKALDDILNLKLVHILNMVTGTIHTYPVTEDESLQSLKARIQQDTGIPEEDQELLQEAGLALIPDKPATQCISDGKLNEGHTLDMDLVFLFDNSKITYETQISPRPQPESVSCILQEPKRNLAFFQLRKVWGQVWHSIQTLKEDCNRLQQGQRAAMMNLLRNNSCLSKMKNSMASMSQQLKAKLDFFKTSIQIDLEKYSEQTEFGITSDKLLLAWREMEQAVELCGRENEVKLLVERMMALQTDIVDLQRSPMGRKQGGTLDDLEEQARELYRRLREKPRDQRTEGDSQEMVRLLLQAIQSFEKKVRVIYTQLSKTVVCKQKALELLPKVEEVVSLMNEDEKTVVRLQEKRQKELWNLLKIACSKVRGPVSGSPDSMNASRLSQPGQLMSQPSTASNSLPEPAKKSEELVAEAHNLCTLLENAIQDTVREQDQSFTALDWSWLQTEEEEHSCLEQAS", "assay": "Inhibition of human full length IKK beta expressed in baculovirus assessed as substrate phosphorylation using fluorescence-labelled peptides as substrate at 0.06 uM after 90 mins by microfluidic peptide phosphorylation assay"}, "[2]": {"biological_target": "Ribosomal protein S6 kinase alpha-3 (Homo sapiens) (UniProt P51812)", "sequence (P51812 whole entry)": "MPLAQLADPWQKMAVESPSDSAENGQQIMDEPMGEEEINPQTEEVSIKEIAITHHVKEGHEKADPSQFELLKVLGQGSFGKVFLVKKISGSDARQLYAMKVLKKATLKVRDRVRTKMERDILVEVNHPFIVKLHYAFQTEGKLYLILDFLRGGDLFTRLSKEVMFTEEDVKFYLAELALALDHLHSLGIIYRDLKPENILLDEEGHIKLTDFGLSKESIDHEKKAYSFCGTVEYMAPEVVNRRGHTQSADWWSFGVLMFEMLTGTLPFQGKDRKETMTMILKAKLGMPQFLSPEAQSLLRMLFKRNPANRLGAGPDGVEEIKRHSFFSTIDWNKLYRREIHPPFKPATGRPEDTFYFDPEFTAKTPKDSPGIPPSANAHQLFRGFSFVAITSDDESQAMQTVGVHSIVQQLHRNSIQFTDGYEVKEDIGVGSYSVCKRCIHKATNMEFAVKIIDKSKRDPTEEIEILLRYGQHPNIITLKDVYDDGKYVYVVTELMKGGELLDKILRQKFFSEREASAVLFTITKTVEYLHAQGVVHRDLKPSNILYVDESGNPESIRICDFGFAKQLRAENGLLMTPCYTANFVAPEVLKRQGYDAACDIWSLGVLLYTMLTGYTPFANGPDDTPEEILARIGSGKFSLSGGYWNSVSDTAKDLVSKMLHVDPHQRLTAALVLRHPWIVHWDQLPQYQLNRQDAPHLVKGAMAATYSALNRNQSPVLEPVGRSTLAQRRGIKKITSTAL", "assay": "Inhibition of human full length RSK2 expressed in baculovirus assessed as substrate phosphorylation using fluorescence-labelled peptides as substrate at 70 uM after 90 mins by microfluidic peptide phosphorylation assay"}, "[3]": {"biological_target": "T2, Serine/threonine-protein kinase 3 (Homo sapiens) (UniProt Q13188)", "T2 sequence (whole entry)": "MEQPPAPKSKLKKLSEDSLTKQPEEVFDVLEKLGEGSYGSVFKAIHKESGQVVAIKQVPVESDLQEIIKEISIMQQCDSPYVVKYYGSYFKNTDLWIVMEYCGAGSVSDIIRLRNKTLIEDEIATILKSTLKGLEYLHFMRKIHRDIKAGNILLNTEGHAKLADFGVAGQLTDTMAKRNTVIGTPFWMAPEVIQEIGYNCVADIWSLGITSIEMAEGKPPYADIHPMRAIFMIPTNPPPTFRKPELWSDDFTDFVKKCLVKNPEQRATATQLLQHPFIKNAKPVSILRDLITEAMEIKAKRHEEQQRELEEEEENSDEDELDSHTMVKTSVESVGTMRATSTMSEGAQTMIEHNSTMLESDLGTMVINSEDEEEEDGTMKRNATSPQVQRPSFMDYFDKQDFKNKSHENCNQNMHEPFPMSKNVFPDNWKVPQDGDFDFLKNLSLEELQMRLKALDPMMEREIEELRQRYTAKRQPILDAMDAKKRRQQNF", "assay": "Inhibition of human full length MST2 expressed in baculovirus assessed as substrate phosphorylation using fluorescence-labelled peptides as substrate at 420 uM after 90 mins by microfluidic peptide phosphorylation assay"}, "[4]": {"biological_target": "Fibroblast growth factor receptor 4 (Homo sapiens) (UniProt P22455)", "sequence (P22455 22-802 limits assumed)": "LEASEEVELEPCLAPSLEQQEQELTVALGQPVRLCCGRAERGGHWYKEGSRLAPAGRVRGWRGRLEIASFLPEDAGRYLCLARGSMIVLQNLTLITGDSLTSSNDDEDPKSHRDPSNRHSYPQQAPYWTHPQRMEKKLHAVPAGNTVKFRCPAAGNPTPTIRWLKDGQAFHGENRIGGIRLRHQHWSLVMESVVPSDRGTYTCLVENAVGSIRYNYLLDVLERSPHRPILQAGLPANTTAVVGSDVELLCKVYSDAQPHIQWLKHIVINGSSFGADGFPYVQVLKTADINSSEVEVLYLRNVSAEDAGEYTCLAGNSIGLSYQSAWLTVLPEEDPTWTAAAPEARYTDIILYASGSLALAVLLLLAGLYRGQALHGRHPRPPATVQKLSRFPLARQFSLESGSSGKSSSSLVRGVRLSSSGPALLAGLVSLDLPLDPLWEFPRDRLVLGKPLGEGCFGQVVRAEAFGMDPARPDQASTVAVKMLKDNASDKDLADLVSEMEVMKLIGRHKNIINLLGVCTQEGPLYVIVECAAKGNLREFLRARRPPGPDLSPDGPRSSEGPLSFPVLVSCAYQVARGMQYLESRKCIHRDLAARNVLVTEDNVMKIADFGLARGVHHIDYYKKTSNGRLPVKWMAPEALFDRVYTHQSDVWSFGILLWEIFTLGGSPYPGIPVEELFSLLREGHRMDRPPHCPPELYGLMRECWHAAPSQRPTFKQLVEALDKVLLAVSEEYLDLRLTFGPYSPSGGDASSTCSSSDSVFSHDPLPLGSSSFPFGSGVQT", "assay": "Inhibition of human FGFR4 catalytic domain expressed in baculovirus assessed as substrate phosphorylation using fluorescence-labelled peptides as substrate at 95 uM after 90 mins by microfluidic peptide phosphorylation assay"}, "[5]": {"biological_target": "Protein kinase C beta type (Homo sapiens) (UniProt P05771)", "sequence (P05771 2-671 limits assumed)": "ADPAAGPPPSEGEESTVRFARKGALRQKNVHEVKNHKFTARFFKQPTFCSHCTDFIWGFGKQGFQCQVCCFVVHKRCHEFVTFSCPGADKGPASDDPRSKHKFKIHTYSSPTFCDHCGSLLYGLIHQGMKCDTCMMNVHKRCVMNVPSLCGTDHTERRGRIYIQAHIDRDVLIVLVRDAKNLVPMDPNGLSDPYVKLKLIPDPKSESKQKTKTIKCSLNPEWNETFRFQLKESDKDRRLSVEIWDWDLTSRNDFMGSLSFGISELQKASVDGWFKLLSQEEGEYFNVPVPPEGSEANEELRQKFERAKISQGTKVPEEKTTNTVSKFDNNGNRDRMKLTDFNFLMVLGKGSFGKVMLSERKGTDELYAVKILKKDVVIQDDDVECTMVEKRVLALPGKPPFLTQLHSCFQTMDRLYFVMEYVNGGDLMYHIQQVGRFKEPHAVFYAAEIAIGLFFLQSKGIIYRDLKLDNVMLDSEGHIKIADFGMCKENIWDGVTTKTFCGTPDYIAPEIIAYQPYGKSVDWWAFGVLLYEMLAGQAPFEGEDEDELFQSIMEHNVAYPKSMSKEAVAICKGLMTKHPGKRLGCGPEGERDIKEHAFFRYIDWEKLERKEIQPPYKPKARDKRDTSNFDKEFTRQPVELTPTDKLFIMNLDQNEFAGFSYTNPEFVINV", "assay": "Inhibition of human truncated PKC beta1 expressed in baculovirus assessed as substrate phosphorylation using fluorescence-labelled peptides as substrate at 9 uM after 90 mins by microfluidic peptide phosphorylation assay"}, "[6]": {"biological_target": "Ribosomal protein S6 kinase alpha-1 (Homo sapiens) (UniProt Q15418)", "sequence (Q15418 whole entry)": "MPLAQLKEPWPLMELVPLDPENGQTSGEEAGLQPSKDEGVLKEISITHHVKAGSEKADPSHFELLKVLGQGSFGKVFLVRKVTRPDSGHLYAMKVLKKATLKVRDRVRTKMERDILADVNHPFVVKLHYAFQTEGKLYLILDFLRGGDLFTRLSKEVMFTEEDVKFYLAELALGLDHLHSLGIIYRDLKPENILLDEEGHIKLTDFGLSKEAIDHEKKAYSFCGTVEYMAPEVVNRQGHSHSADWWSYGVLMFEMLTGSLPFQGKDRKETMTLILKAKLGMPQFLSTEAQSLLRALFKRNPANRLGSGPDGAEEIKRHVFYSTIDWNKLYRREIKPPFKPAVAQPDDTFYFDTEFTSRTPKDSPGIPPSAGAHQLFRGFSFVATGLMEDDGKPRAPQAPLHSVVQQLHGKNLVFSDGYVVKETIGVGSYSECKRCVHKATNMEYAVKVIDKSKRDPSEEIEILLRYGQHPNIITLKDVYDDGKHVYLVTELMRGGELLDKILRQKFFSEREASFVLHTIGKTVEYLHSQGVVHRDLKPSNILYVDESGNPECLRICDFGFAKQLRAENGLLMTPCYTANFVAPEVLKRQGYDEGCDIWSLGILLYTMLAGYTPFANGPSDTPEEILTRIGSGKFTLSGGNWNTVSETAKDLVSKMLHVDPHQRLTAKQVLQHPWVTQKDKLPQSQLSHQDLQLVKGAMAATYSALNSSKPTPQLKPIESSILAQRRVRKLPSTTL", "conditions": "9 uM", "description": "Inhibition of human full length RSK1 expressed in baculovirus assessed as substrate phosphorylation using fluorescence-labelled peptides as substrate at 9 uM after 90 mins by microfluidic peptide phosphorylation assay"}, "[7]": {"biological_target": "Ribosomal protein S6 kinase alpha-3 (Homo sapiens) (UniProt P51812)", "assay": "Inhibition of human full length RSK2 expressed in baculovirus assessed as substrate phosphorylation using fluorescence-labelled peptides as substrate at 2 uM after 90 mins by microfluidic peptide phosphorylation assay"}, "[8]": {"biological_target": "Insulin receptor (Homo sapiens) (UniProt P06213)", "assay": "Inhibition of human INSR catalytic domain expressed in baculovirus assessed as substrate phosphorylation using fluorescence-labelled peptides as substrate at 2 uM after 90 mins by microfluidic peptide phosphorylation assay"}, "[9]": {"biological_target": "MAP kinase-activated protein kinase 3 (Homo sapiens) (UniProt Q16644)", "sequence (Q16644 whole entry, looked up)": "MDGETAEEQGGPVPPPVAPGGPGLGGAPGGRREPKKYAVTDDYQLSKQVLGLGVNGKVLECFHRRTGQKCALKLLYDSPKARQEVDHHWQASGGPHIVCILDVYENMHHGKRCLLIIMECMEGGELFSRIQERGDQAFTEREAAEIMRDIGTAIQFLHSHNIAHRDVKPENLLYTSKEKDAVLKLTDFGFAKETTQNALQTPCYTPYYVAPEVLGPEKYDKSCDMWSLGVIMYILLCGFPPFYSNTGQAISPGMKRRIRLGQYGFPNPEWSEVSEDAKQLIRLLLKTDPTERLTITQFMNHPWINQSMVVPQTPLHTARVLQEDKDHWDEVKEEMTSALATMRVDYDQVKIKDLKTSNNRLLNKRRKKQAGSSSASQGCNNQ", "assay": "Inhibition of human full length MAPKAPK3 expressed in Escherichia coli cell assessed as substrate phosphorylation using fluorescence-labelled peptides as substrate at […] after 90 mins by microfluidic peptide phosphorylation assay"}, "[10]": {"biological_target": "MAP/microtubule affinity-regulating kinase 3 (Homo sapiens) (UniProt P27448)", "sequence (P27448 whole entry, looked up)": "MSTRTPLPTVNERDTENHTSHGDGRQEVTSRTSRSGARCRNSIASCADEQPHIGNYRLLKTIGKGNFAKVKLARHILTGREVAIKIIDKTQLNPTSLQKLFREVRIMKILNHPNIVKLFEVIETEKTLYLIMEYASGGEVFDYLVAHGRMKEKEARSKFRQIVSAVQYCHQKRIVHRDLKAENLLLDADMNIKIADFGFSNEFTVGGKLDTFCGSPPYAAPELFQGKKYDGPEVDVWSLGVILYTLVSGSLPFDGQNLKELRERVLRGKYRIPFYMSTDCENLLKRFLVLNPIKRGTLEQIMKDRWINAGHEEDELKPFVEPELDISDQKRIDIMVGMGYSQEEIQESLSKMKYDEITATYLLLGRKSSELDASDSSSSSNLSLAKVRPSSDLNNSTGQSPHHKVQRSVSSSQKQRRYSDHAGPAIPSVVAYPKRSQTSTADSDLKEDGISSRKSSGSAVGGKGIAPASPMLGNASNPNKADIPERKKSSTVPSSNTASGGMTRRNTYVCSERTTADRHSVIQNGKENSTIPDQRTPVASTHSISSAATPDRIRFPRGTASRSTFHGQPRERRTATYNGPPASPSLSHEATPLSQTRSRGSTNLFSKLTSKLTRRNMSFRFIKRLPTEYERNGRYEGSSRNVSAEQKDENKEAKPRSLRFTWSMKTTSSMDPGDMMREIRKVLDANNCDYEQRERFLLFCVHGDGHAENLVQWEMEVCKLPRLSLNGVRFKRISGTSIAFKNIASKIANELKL", "assay": "Inhibition of human full length c-TAK1 expressed in Escherichia coli cell assessed as substrate phosphorylation using fluorescence-labelled peptides as substrate at 8 uM after 90 mins by microfluidic peptide phosphorylation assay"}, "[11]": {"biological_target": "T3, Serine/threonine-protein kinase BRSK1 (Homo sapiens) (UniProt Q8TDC3)", "T3 sequence (whole entry)": "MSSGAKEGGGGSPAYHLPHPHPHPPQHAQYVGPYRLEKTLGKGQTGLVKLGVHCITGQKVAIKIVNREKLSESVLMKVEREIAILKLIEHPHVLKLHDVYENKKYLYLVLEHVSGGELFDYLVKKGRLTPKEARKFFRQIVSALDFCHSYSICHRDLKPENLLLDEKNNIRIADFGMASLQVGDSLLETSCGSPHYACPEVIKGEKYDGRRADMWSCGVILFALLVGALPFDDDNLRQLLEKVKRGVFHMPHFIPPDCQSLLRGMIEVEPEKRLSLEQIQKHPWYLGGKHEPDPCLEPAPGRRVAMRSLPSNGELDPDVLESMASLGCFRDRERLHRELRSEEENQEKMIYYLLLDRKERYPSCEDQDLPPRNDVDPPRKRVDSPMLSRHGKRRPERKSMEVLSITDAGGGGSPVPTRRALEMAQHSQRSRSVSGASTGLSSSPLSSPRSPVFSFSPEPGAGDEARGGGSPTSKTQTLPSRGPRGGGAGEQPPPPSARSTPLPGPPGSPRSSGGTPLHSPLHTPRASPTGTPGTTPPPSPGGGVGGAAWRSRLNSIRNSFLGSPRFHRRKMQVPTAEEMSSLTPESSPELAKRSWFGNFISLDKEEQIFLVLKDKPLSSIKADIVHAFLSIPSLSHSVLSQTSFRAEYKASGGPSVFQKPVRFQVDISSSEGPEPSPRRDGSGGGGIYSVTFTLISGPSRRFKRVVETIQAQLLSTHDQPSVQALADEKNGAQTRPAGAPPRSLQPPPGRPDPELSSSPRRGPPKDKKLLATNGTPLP", "assay": "Inhibition of human full length BRSK1 expressed in baculovirus assessed as substrate phosphorylation using fluorescence-labelled peptides as substrate at 8 uM after 90 mins by microfluidic peptide phosphorylation assay"}},
  "data": [
    {"smiles": "NC1(Cc2ccc(Cl)cc2)CCN(c2ncnc3[nH]ccc23)CC1", "values": [
      {"measurement": "inhibition", "setting": "[1]", "result": 2, "unit": "%"}
    ]},
    {"smiles": "CNCc1ccc(-c2ncnc3[nH]cnc23)cc1", "values": [
      {"measurement": "inhibition", "setting": "[2]", "result": 75, "unit": "%"}
    ]},
    {"smiles": "c1nc(N2CCOCC2)c2nc[nH]c2n1", "values": [
      {"measurement": "inhibition", "setting": "[3]", "result": 99, "unit": "%"}
    ]},
    {"smiles": "NCCc1ccc(-c2ncnc3[nH]cnc23)cc1", "values": [
      {"measurement": "inhibition", "setting": "[4]", "result": 10, "unit": "%"}
    ]},
    {"smiles": "NCC1CN(c2ncnc3[nH]c4cnccc4c23)CCO1", "note": "(stereo unspecified)", "values": [
      {"measurement": "inhibition", "setting": "[5]", "result": 22.5, "unit": "%"},
      {"measurement": "inhibition", "setting": "[6]", "result": 91, "unit": "%"}
    ]},
    {"smiles": "NC1CCN(c2ncnc3[nH]ccc23)CC1", "values": [
      {"measurement": "inhibition", "setting": "[7]", "result": 2, "unit": "%"},
      {"measurement": "inhibition", "setting": "[8]", "result": 7.5, "unit": "%"}
    ]},
    {"smiles": "COC(=O)c1cnc(Nc2cnc(C#N)cn2)cc1NCC1CCNCC1", "values": [
      {"measurement": "inhibition", "setting": "[9]", "result": 7, "unit": "%"}
    ]},
    {"smiles": "NCC1CCN(c2ncnc3[nH]ccc23)CC1", "values": [
      {"measurement": "inhibition", "setting": "[10]", "result": 3, "unit": "%"},
      {"measurement": "inhibition", "setting": "[11]", "result": 56.5, "unit": "%"}
    ]}
  ]
}
